Experimental findings from ChEMBL document CHEMBL4261637, “Discovery of a non-toxic [1,2,4]triazolo[1,5-a]pyrimidin-7-one (WS-10) that modulates ABCB1-mediated multidrug resistance (MDR)” (Bioorg Med Chem, 2018) are described below.

In series [1] the test system is HEK-293T. Kind of series: Potentiation of cisplatin-induced cytotoxicity in human HEK293T/NC cells assessed as fold reduction in cisplatin IC50 at 4 uM after 72 hrs by MTT assay relative to cisplatin. In kind it is functional.
The test system of series [2] is SW-620. Kind of series: Potentiation of paclitaxel-induced cytotoxicity in human SW620 cells assessed as fold reduction in paclitaxel IC50 at 4 uM after 72 hrs by MTT assay relative to paclitaxel alone. In kind it is functional.
The subject of series [3] is HEK-293T. Kind of series: Potentiation of doxorubicin-induced cytotoxicity in human HEK293T/NC cells assessed as fold reduction in doxorubicin IC50 at 4 uM after 72 hrs by MTT assay relative to doxorubicin. Type of series: functional.
The subject of series [4] is SW-620. Kind of series: Potentiation of doxorubicin-induced cytotoxicity in human SW620 cells assessed as fold reduction in doxorubicin IC50 at 4 uM after 72 hrs by MTT assay relative to doxorubicin alone. Type of series: functional.
For series [5], the system named is SW-620. The experiment in a line: Potentiation of cisplatin-induced cytotoxicity in human SW620 cells assessed as fold reduction in cisplatin IC50 at 4 uM after 72 hrs by MTT assay relative to cisplatin alone. In kind it is functional.
Series [6] relates to HEK-293T. The experiment in a line: Potentiation of paclitaxel-induced cytotoxicity in human HEK293T/NC cells assessed as fold reduction in paclitaxel IC50 at 4 uM after 72 hrs by MTT assay relative to paclitaxel. Type of series: functional.
The test system of series [7] is MGC-803. The experiment in a line: Cytotoxicity against human MGC803 cells at 10 to 20 uM after 72 hrs by MTT assay. Type of series: cell-based. Conditions: mgc-803, 72 h.
Series [8] deals with HEK-293T. Kind of series: Potentiation of doxorubicin-induced cytotoxicity in human HEK293T/NC cells assessed as fold reduction in doxorubicin IC50 at 20 uM after 72 hrs by MTT assay relative to doxorubicin. Type of series: functional.
Series [9] has as its system SW620/AD300. The experiment in a line: Effect on ABCB1 expression in human SW620/AD300 cells at 20 uM up to 96 hrs by Western blot analysis. Type of series: functional, cell-based.
For series [10], the system named is TE-1. Kind of series: Cytotoxicity against human TE1 cells at 10 to 20 uM after 72 hrs by MTT assay. Type of series: cell-based. Conditions: te-1, 72 h.
The test system of series [11] is ECa-109 cell line. Kind of series: Cytotoxicity against human EC109 cells at 10 to 20 uM after 72 hrs by MTT assay. Type of series: cell-based. Conditions: eca-109, 72 h.
Series [12] relates to HEK-293T. Kind of series: Potentiation of doxorubicin-induced cytotoxicity in human HEK293T/NC cells assessed as fold reduction in doxorubicin IC50 at 10 uM after 72 hrs by MTT assay relative to doxorubicin. In kind it is functional.
Series [13] deals with T1, ATP-dependent translocase ABCB1 (Homo sapiens, UniProt P08183). The experiment in a line: Binding affinity to ABCB1 in human SW620/AD300 cells assessed as thermal stabilization incubated for 30 mins at 43 to 80 degC by CETSA. Type of series: cell-based. Conditions: 0.5 h.
For series [14], the system named is SW620/AD300. The experiment in a line: Effect on ABCB1 expression in human SW620/AD300 cells at 10 to 20 uM by Western blot analysis. In kind it is functional, cell-based.
Series [15] has as its system HEK-293T. The experiment in a line: Potentiation of paclitaxel-induced cytotoxicity in human HEK293T/NC cells assessed as fold reduction in paclitaxel IC50 at 10 uM after 72 hrs by MTT assay relative to paclitaxel. Type of series: functional.
For series [16], the system named is SW-620. The experiment in a line: Potentiation of doxorubicin-induced cytotoxicity in human SW620 cells assessed as fold reduction in doxorubicin IC50 at 10 uM after 72 hrs by MTT assay relative to doxorubicin alone. Type of series: functional.
The subject of series [17] is SW-620. Kind of series: Potentiation of paclitaxel-induced cytotoxicity in human SW620 cells assessed as fold reduction in paclitaxel IC50 at 10 uM after 72 hrs by MTT assay relative to paclitaxel alone. Type of series: functional.
In series [18] the test system is SW-620. The experiment in a line: Potentiation of cisplatin-induced cytotoxicity in human SW620 cells assessed as fold reduction in cisplatin IC50 at 20 uM after 72 hrs by MTT assay relative to cisplatin alone. Type of series: functional.
In series [19] the test system is SGC-7901. Kind of series: Cytotoxicity against human SGC7901 cells at 10 to 20 uM after 72 hrs by MTT assay. In kind it is cell-based. Conditions: sgc-7901, 72 h.
Series [20] relates to SW620/AD300. The experiment in a line: Effect on subcellular localization of ABCB1 in human SW620/AD300 cells at 10 to 20 uM after 72 hrs by Hoechst 33342 staining-based immunofluorescence assay. In kind it is functional, cell-based.
In series [21] the test system is HEK-293T. The experiment in a line: Potentiation of cisplatin-induced cytotoxicity in human HEK293T/NC cells assessed as fold reduction in cisplatin IC50 at 10 uM after 72 hrs by MTT assay relative to cisplatin. Type of series: functional.
Series [22] concerns the target T1, ATP-dependent translocase ABCB1. The experiment in a line: Inhibition of ABCB1 in human SW620/AD300 cells assessed as intracellular accumulation of paclitaxel at 10 to 20 uM after 72 hrs by UPLC analysis. Type of series: cell-based.
The test system of series [23] is A549. The experiment in a line: Cytotoxicity against human A549 cells at 10 to 20 uM after 72 hrs by MTT assay. In kind it is cell-based. Conditions: a549, 72 h.
Series [24] has as its system SW-620. The experiment in a line: Potentiation of paclitaxel-induced cytotoxicity in human SW620 cells assessed as fold reduction in paclitaxel IC50 at 20 uM after 72 hrs by MTT assay relative to paclitaxel alone. Type of series: functional.
Series [25] relates to HEK-293T. The experiment in a line: Potentiation of paclitaxel-induced cytotoxicity in human HEK293T/NC cells assessed as fold reduction in paclitaxel IC50 at 20 uM after 72 hrs by MTT assay relative to paclitaxel. In kind it is functional.
The subject of series [26] is SW-620. The experiment in a line: Potentiation of doxorubicin-induced cytotoxicity in human SW620 cells assessed as fold reduction in doxorubicin IC50 at 20 uM after 72 hrs by MTT assay relative to doxorubicin alone. Type of series: functional.
The subject of series [27] is SW-620. Kind of series: Potentiation of cisplatin-induced cytotoxicity in human SW620 cells assessed as fold reduction in cisplatin IC50 at 10 uM after 72 hrs by MTT assay relative to cisplatin alone. In kind it is functional.

The source made the active and inactive calls. The calls are words filed in the database; no cut-off is given here.

T1 sequence (P08183 whole entry): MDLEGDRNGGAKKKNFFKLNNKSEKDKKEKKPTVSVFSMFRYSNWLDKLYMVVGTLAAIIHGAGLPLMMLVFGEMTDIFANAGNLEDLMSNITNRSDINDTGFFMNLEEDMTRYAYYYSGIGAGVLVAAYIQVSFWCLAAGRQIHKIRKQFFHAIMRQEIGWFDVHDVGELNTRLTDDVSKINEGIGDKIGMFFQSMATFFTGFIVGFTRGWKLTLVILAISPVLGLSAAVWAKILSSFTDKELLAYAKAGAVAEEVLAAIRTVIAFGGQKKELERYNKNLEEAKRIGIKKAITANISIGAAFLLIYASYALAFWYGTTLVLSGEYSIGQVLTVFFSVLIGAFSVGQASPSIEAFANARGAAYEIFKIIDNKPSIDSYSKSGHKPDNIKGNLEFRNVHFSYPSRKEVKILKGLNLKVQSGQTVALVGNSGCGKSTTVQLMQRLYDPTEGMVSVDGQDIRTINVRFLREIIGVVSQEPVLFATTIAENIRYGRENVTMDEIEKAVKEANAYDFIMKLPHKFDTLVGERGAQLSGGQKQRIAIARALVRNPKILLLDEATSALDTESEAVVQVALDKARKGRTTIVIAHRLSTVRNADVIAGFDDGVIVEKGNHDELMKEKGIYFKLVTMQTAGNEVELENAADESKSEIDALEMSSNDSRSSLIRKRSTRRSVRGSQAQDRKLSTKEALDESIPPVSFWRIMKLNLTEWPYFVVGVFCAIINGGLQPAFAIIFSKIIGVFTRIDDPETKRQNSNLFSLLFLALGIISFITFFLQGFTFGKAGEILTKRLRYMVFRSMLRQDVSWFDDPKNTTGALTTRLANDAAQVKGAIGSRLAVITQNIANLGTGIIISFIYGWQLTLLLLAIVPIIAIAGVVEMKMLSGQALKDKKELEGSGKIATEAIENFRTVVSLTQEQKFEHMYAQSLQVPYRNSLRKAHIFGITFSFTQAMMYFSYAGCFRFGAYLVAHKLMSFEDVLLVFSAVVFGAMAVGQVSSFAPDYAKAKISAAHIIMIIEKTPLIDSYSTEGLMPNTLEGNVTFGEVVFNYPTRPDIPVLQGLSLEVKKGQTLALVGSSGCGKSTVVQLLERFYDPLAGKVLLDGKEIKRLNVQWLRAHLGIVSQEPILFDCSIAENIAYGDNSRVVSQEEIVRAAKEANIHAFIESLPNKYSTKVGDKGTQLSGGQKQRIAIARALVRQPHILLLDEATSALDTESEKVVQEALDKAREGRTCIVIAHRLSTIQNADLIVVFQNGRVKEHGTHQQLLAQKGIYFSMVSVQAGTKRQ

For the compound `COc1ccc(CCN(C)CCCC(C#N)(c2ccc(OC)c(OC)c2)C(C)C)cc1OC` (configuration not stated), the “Ratio IC50” value in series [1] was 0.89; in series [2], 1.29; in [3], 1.07; in series [4], 1.18; in series [5], 1.1; in series [6], 0.84.

In the case of `O=c1cc(-c2ccccc2)[nH]c2nc(SCc3nc4ccccc4[nH]3)nn12`, the Activity entry is listed as “Non-Toxic” in series [7]; “Non-Toxic” in [10]; “Non-Toxic” in series [11]; “Active” in [13]; “Non-Toxic” in series [19]; “Non-Toxic” in [23]. Also, the “Ratio IC50” value in series [8] worked out at 1.08; in [12], 1.14; in series [15], 0.87; in [16] it was 1.17; in series [17], 1.2; in [18] it was 0.97. For the same compound, the “Ratio IC50” value is given as 1.04 in series [21]; 0.81 in series [24]; 0.83 in series [25]; 1.14 in series [26]; 1.07 in series [27]. Also, the outcome in series [9], in series [14] and in series [20] was inactive. The “inhibition (INH)” value in series [22] was “Active”.
